In ChEMBL document CHEMBL5331081, “Discovery of cysteine-targeting covalent histone methyltransferase inhibitors” (Eur J Med Chem, 2023):
Each block holds one compound with its values, some of them ahead of it.

Assays:
[1] = Reduction in H3K9me2 level in human MDA-MB-231 cells incubated for 48 hrs by ChIP assay; assay type: functional, cell-based; details: MDA-MB-231, 48 h
[2] = in vivo; details: CD-1, mouse, po, 100 mg/kg
[3] = system: A549; assay: Anticancer activity against human A549 cells assessed as cell growth inhibition measured after 48 hrs by CCK-8 assay; assay type: functional
[4] = system: NCI-H1299; assay: Anticancer activity against human NCI-H1299 cells assessed as cell growth inhibition measured after 48 hrs by CCK-8 assay; assay type: functional
[5] = system: MDA-MB-231; assay: Anticancer activity against human MDA-MB-231 cells assessed as cell growth inhibition measured after 48 hrs by CCK-8 assay; assay type: functional
[6] = system: MCF7; assay: Anticancer activity against human MCF7 cells assessed as cell growth inhibition measured after 48 hrs by CCK-8 assay; assay type: functional
[7] = biological target: Menin/Histone-lysine N-methyltransferase MLL (Homo sapiens, UniProt O00255+Q03164); assay: Inhibition of menin (unknown origin)/MLL (unknown origin) protein-protein interaction by fluorescence polarization assay
Chain of Menin/Histone-lysine N-methyltransferase MLL (O00255 whole entry, the tested form may be a part): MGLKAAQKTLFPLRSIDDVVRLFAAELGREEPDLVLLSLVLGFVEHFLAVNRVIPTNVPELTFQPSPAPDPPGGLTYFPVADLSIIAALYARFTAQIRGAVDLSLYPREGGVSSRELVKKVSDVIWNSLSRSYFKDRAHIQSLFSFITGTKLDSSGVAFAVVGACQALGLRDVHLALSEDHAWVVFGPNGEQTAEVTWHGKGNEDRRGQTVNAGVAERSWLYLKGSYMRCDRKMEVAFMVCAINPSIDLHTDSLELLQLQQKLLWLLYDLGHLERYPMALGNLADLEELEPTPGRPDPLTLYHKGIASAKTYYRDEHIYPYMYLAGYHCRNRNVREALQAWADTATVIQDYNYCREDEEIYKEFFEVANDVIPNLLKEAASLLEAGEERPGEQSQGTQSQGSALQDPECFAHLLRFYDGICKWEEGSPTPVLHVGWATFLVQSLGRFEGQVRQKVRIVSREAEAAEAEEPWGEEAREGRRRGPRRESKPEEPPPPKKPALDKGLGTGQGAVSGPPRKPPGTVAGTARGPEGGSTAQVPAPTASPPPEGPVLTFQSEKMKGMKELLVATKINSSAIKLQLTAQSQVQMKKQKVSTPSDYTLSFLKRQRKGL
Chain of Menin/Histone-lysine N-methyltransferase MLL (Q03164 1-2718 limits assumed): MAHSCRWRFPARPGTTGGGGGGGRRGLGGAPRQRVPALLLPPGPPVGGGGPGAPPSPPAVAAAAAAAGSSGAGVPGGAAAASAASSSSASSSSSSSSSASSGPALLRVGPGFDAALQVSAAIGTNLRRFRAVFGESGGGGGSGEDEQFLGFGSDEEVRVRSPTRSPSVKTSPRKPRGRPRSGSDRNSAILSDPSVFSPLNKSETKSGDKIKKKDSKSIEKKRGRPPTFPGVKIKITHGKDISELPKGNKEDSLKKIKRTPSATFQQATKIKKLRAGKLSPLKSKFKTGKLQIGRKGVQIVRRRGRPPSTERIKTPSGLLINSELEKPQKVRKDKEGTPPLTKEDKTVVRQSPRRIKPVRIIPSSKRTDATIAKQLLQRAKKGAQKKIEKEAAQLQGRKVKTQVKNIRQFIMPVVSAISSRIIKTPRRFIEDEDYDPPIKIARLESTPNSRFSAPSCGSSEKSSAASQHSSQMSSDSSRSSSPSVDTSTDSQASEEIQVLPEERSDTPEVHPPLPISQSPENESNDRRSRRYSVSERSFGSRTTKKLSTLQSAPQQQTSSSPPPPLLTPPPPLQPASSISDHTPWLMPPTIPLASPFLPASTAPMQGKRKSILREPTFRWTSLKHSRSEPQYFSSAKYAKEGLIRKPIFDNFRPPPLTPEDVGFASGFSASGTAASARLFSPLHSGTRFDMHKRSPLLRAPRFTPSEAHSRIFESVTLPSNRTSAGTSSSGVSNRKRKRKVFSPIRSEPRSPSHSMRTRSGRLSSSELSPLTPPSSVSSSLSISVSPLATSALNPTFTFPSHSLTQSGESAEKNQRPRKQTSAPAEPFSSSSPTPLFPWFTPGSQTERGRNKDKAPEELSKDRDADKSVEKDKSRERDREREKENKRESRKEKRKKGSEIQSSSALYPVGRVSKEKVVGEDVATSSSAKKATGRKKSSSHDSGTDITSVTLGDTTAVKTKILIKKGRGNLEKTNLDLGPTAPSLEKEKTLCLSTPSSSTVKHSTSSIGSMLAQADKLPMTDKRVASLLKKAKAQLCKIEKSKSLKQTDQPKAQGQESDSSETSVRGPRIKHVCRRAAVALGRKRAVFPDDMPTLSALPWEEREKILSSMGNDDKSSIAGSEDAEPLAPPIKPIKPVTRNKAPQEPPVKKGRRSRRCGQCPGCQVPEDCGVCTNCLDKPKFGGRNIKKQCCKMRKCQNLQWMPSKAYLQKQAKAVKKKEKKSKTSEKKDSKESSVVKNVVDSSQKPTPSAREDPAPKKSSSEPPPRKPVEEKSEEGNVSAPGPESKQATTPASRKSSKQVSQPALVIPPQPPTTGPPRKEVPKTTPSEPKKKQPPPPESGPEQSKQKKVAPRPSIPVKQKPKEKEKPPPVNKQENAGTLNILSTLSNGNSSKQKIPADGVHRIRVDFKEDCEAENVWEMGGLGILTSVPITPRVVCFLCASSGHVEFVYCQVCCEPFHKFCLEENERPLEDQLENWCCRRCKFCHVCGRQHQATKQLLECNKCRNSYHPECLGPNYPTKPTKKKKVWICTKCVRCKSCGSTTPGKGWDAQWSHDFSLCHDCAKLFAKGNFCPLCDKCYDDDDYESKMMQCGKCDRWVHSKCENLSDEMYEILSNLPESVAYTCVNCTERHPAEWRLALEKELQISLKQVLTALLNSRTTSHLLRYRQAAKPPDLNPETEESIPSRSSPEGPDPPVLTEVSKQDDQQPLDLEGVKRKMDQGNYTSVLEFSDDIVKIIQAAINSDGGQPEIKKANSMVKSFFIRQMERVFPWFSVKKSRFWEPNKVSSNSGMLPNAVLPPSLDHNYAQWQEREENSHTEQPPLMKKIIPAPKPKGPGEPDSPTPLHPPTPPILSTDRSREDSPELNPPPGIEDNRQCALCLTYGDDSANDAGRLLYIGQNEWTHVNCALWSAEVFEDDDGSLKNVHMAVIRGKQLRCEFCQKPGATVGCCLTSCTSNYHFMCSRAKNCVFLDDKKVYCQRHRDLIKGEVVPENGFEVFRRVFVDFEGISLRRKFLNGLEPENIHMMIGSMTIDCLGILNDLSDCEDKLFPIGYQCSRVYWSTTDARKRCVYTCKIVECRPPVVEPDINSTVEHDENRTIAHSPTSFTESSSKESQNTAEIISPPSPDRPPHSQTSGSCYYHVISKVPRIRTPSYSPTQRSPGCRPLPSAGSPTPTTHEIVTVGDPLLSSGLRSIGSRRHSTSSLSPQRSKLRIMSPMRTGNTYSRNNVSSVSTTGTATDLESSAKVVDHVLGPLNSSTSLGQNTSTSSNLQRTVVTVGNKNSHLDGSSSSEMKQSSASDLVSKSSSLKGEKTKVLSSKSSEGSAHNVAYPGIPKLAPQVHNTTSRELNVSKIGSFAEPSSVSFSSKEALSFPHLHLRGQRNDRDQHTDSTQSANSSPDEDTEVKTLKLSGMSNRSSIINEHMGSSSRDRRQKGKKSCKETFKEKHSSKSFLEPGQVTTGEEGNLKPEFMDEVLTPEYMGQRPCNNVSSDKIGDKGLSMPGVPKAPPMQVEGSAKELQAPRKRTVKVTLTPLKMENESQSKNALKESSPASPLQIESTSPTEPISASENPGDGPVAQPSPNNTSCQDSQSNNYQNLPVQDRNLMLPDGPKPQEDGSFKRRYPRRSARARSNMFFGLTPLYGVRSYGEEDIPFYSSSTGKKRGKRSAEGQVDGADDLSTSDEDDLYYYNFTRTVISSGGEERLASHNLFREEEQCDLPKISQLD
Chain of Menin/Histone-lysine N-methyltransferase MLL (Q03164 2719-3969 limits assumed): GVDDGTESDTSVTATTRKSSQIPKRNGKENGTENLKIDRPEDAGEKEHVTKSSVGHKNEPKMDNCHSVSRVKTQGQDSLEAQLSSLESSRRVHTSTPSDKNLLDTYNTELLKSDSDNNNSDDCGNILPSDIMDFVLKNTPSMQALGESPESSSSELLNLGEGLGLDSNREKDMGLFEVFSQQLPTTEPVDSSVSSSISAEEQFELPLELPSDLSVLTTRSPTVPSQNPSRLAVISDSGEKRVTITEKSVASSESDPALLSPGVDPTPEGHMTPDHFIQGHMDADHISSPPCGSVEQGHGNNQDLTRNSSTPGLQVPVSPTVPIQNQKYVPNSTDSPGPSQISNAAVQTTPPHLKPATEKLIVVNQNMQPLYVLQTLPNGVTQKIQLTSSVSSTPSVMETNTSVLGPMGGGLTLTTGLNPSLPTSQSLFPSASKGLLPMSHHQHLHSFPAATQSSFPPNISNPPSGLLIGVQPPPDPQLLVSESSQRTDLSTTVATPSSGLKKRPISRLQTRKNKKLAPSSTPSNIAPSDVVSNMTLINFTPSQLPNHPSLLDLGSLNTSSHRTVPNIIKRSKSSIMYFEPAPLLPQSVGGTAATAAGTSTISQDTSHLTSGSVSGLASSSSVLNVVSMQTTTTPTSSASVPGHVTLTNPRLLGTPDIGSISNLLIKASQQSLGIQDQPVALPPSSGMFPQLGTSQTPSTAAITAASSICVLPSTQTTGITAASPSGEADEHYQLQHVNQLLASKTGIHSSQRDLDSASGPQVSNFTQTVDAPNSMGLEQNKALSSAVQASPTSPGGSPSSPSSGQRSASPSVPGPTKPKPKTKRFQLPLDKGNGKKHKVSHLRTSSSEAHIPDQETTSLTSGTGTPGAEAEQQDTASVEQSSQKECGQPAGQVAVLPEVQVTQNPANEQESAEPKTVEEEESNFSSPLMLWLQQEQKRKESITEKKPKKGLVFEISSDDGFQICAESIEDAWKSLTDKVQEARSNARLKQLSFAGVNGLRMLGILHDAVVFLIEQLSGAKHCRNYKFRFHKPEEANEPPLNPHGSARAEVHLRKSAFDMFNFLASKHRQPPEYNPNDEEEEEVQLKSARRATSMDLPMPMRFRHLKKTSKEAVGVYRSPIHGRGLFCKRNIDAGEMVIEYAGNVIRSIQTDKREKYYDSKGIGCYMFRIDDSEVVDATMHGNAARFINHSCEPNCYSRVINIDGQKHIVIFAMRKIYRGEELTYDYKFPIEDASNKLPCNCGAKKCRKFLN

[8] = system: MV4-11; assay: Anticancer activity against human MV4-11 cells harboring MLL-AF4 fusion protein assessed as cell growth inhibition measured after 7 days by WST-8 assay; assay type: functional; details: MV4-11, 168 h, pooled result: one value given for 6 cell lines, strains, targets or settings, time 7 day
[9] = system: K562; assay: Anticancer activity against human K562 cells assessed as cell growth inhibition measured after 7 days by WST-8 assay; assay type: functional; details: K562, 168 h, time 7 day
[10] = Anticancer activity against human MOLM16 cells assessed as cell growth inhibition measured after 7 days by WST-8 assay; assay type: functional, MOLM-16; details: MOLM16, 168 h, time 7 day
[11] = system: SKM-1; assay: Anticancer activity against human SKM-1 cells assessed as cell growth inhibition measured after 7 days by WST-8 assay; assay type: functional; details: SKM-1, 168 h, time 7 day
[12] = system: HL-60; assay: Anticancer activity against human HL-60 cells assessed as cell growth inhibition measured after 7 days by WST-8 assay; assay type: functional; details: HL-60, 168 h, time 7 day
[13] = system: PBMC; assay: Anticancer activity against mouse PBMC cells harboring NUP98-NSD1 fusion protein assessed as cell growth inhibition measured after 3 days by MTT assay; assay type: functional; details: 72 h, time 3 day
[14] = system: PBMC; assay: Anticancer activity against mouse PBMC cells harboring NUP98-NSD1 fusion protein assessed as cell growth inhibition measured after 7 days by MTT assay; assay type: functional; details: 168 h, time 7 day
[15] = system: MV4-11; assay: Anticancer activity against human MV4-11 cells assessed as cell growth inhibition; assay type: functional
[16] = system: HL-60; assay: Anticancer activity against human HL-60 cells assessed as cell growth inhibition; assay type: functional
[17] = Selectivity index, ratio of GI50 for human MV4-11 cells harboring MLL-AF4 fusion protein to ratio of GI50 for human HL-60 cells; assay type: functional
[18] = biological target: Histone-lysine N-methyltransferase EZH2 (Homo sapiens, UniProt Q15910); assay: Inhibition of EZH2 (unknown origin)

SMILES: COc1cc2c(NC3CCN(C(C)C)CC3)nc(C3CCCCC3)nc2cc1OCCCN1CCCC1
IC50 [1]: 81 nM

SMILES: CC1(C)CN=C(N2CCN(c3ncnc4sc5c(c34)CCCC5)CC2)S1
bioavailability [2]: 77%

SMILES: O=C(CCl)Nc1ccc(S(=O)(=O)c2ccc(NC(=O)CCl)cc2)cc1
GI50 [3]: 702 nM | GI50 [4]: 684 nM | GI50 [5]: 597 nM | GI50 [6]: 413 nM

SMILES: COC(=O)N[C@H]1CCC[C@@H]1[C@](C#N)(c1cccc(F)c1)C1CCN(CC2CN(c3ccc(S(=O)(=O)C4CN(C(=O)/C=C/CN(C)C)C4)cc3)C2)CC1
IC50 [7]: 3 nM | GI50 [8]: 2.3 nM | GI50 [9]: 900 nM | GI50 [10]: 900 nM | GI50 [11]: 900 nM | GI50 [12]: 900 nM

SMILES: CC1CN1c1cc(O)c2nc(N)sc2c1 (stereo unspecified)
GI50 [13]: 1300 nM | GI50 [14]: 870 nM

Further lines, with some results ahead:

GI50 [15]: 6 nM | GI50 [16]: 3200 nM
SMILES: C=CC(=O)N1CC(S(=O)(=O)c2ccc(N3CC(CN4CCC([C@@](C#N)(c5cccc(F)c5)[C@H]5CCC[C@@H]5NC(=O)OC)CC4)C3)cc2)C1
RatioGI50 [17]: >500

IC50 [7]: 7 nM | GI50 [15]: 210 nM
SMILES: COC(=O)N[C@H]1CCC[C@@H]1[C@](C#N)(c1cccc(F)c1)C1CCN(CC2CN(c3ccc(S(=O)(=O)C4CCC4)cc3)C2)CC1

IC50 [18]: 47 nM
SMILES: C=CC(=O)Nc1cc(-c2ccc(N3CCNCC3)cc2)cc(C(=O)NCc2c(CC)cc(C)[nH]c2=O)c1C

IC50 [1]: 500 nM
SMILES: COc1cc2nc(N3CCCN(C)CC3)nc(NC3CCN(Cc4ccccc4)CC3)c2cc1OC
